{"source": "patent US10144730B2", "about": "“Inhibitors of c-Jun-N-terminal kinase (JNK)” (Dana-Farber Cancer Institute, Inc., priority 2011, dated 2018)", "assay_type_in_all_cases": "cell-based", "key": {"c-Jun phosphorylation": {"test_system": "c-Jun phosphorylation", "experiment": "LanthaScreen TR-FRET cell assay for c-Jun phosphorylation in HeLa cells", "details": "Homo sapiens; Hela cells, TNF-α stimulation; read-out: p-c-Jun EC50 (nM) Hela"}, "[1]": {"test_system": "NF-kB nuclear translocation", "experiment": "High-throughput microscopy, NF-kB nuclear translocation", "details": "Homo sapiens, A-375, A375 cells, TNF-α stimulation, read-out: Cellular EC50 NF-kB", "experimental": "(§1) A375 cells were stimulated with anisomycin (FIGS. 14A and 14C to 14F), IGF-1 (FIG. 14B), IL-6 (FIG. 14G), and TNF-α (FIG. 14H) for sixty minutes. The output of multiple signaling pathways was measured using high throughput microscopy at multiple concentrations of four JNK inhibitors and a control compound specific to each pathway DMSO (FIG. 14A), MK2206 (allosteric Akt inhibitor, Haoyuan Chemexpress Co., Limited. Hirai, et al., 2010) (FIG. 14B), PD0325901 (allosteric Mek inhibitor, Haoyuan Chemexpress Co., Limited. Barrett, et al., 2008) (FIGS. 14C and 14D), SB239063 (ATP-competitive p38 inhibitor, Haoyuan Chemexpress Co., Limited. Underwood et al., 2000) (FIGS. 14E and 14F), KIN001-040 (ATP-competitive JAK1,2,3 inhibitor, Haoyuan Chemexpress Co., Limited. Thompson et al., 2002) (FIG. 14G), and KIN001-208 (IKK inhibitor VIII, Haoyuan Chemexpress Co., Limited., Murata, et al., 2004) (FIG. 14H).\n(§2) Cells were plated at 7500 cells/well in 96-well microscopy plates (Corning) in recommended media for 24 hours, and then starved in media lacking serum for 16 hours. Cells were pre-treated for 180 minutes with 10-fold stock solutions of JNK inhibitors and for 10 min with control compounds MK2206, PD0325901, SB239063, KIN040, and KIN208 and treated with 10-fold stock solutions of IGF-1, IL-6, TNF-α (all PeproTech), or anisomycin for 60 minutes. Cells were fixed in 2% paraformaldehyde for 10 min at room temperature and washed with PBS-T (Phosphate Buffered Saline, 0.1% Tween 20). Cells were permeabilized in methanol for 10 min at room temperature, washed with PBS-T, and blocked in Odyssey Blocking Buffer (LI-COR Biosciences) for 1 hour at room temperature. Cells were incubated overnight at 4° C. with antibody specific for Erk1/2(pT202/pY204), Akt(pS473), c-Jun(pS73), pP38(T180/Y182) and pSTAT3(Y705) (Cell Signaling Technology), pRSK1(S380) and pMSK1(S376) (Epitomics), and NF-κB (Santa Cruz Biotechnology) diluted 1:400 in Odyssey Blocking Buffer. Cells were washed three times in PBS-T and incubated with rabbit-specific secondary antibody labeled with Alexa Fluor 647 (Invitrogen) diluted 1:2000 in Odyssey Blocking Buffer. Cells were washed once in PBS-T and once in PBS and incubated in 250 ng/ml Hoechst 33342 (Invitrogen) and 1:1000 Whole Cell Stain (blue; Thermo Scientific) solution. Cells were washed twice with PBS and imaged in an imageWoRx high-throughput microscope (Applied Precision). Data were plotted using DataPflex. […]"}, "phosphorylation of Akt": {"test_system": "phosphorylation of Akt", "experiment": "High-throughput microscopy, phosphorylation of Akt", "details": "Homo sapiens, A-375, A375 cells, IGF-1 stimulation, read-out: Cellular EC50 pAkt", "experimental": "as §1, §2"}, "phosphorylation of Erk": {"test_system": "phosphorylation of Erk", "experiment": "High-throughput microscopy, phosphorylation of Erk", "details": "Homo sapiens, A-375, A375 cells, anisomycin stimulation, read-out: Cellular EC50 pErk", "experimental": "as §1, §2"}, "phosphorylation of p38": {"test_system": "phosphorylation of p38", "experiment": "High-throughput microscopy, phosphorylation of p38", "details": "Homo sapiens, A-375, A375 cells, anisomycin stimulation, read-out: Cellular EC50 pP38", "experimental": "as §1, §2"}, "phosphorylation of RSK": {"test_system": "phosphorylation of RSK", "experiment": "High-throughput microscopy, phosphorylation of RSK", "details": "Homo sapiens, A-375, A375 cells, anisomycin stimulation, read-out: Cellular EC50 pRSK", "experimental": "as §1, §2"}, "phosphorylation of STAT3": {"test_system": "phosphorylation of STAT3", "experiment": "High-throughput microscopy, phosphorylation of STAT3", "details": "Homo sapiens, A-375, A375 cells, IL-6 stimulation, read-out: Cellular EC50 pSTAT3", "experimental": "as §1, §2"}}, "data": [{"compound": "Cc1cc(NC(=O)c2cccc(NC(=O)/C=C/CN(C)C)c2)ccc1Nc1nccc(-c2cccnc2)n1", "note": "[JNK-IN-8]", "values": [{"measurement": "EC50", "setting": "c-Jun phosphorylation", "result": 486, "unit": "nM"}, {"measurement": "EC50", "setting": "[1]", "result": "> 10", "unit": "µM"}, {"measurement": "EC50", "setting": "phosphorylation of Akt", "result": "> 10", "unit": "µM"}, {"measurement": "EC50", "setting": "phosphorylation of Erk", "result": "> 10", "unit": "µM"}, {"measurement": "EC50", "setting": "phosphorylation of p38", "result": "> 10", "unit": "µM"}, {"measurement": "EC50", "setting": "phosphorylation of RSK", "result": "> 10", "unit": "µM"}, {"measurement": "EC50", "setting": "phosphorylation of STAT3", "result": "> 10", "unit": "µM"}]}, {"compound": "CN(C)C/C=C/C(=O)Nc1cccc(C(=O)Nc2ccc(Nc3nccc(/C(C#N)=C4\\Nc5ccccc5S4)n3)cc2)c1", "note": "[JNK-IN-12]", "values": [{"measurement": "EC50", "setting": "c-Jun phosphorylation", "result": 605, "unit": "nM"}, {"measurement": "EC50", "setting": "[1]", "result": "> 10", "unit": "µM"}, {"measurement": "EC50", "setting": "phosphorylation of Akt", "result": "> 10", "unit": "µM"}, {"measurement": "EC50", "setting": "phosphorylation of Erk", "result": "> 10", "unit": "µM"}, {"measurement": "EC50", "setting": "phosphorylation of p38", "result": "> 10", "unit": "µM"}, {"measurement": "EC50", "setting": "phosphorylation of RSK", "result": "> 10", "unit": "µM"}, {"measurement": "EC50", "setting": "phosphorylation of STAT3", "result": "> 10", "unit": "µM"}]}]}
